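Exposure lasted 48 hours, with cells grown in 96-well plates and compounds tested at five concentrations. GI50 is the concentration that inhibits growth by half. At the TGI there is no net growth.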
What was measured:
Assay in all cases: DTP human tumour cell line panel, 48 h
SR leukemia = tested on: SR leukemia
SF-295 CNS = tested on: SF-295 CNS
LOX IMVI melanoma = tested on: LOX IMVI melanoma
UACC-62 melanoma = tested on: UACC-62 melanoma
HL-60(TB) leukemia = tested on: HL-60(TB) leukemia
HOP-92 NSCLC = tested on: HOP-92 NSCLC
A549 NSCLC = tested on: A549 NSCLC
HCT-116 colon = tested on: HCT-116 colon
RPMI-8226 leukemia = tested on: RPMI-8226 leukemia
KM12 colon = tested on: KM12 colon

Row | SMILES | GI50 (SR leukemia) [µM] | TGI (SR leukemia) [µM] | GI50 (SF-295 CNS) [µM] | TGI (SF-295 CNS) [µM] | GI50 (LOX IMVI melanoma) [µM] | TGI (LOX IMVI melanoma) [µM] | GI50 (UACC-62 melanoma) [µM] | TGI (UACC-62 melanoma) [µM] | TGI (HL-60(TB) leukemia) [µM] | TGI (HOP-92 NSCLC) [µM] | TGI (A549 NSCLC) [µM] | TGI (HCT-116 colon) [µM] | GI50 (RPMI-8226 leukemia) [µM] | TGI (RPMI-8226 leukemia) [µM] | GI50 (HL-60(TB) leukemia) [µM] | GI50 (A549 NSCLC) [µM] | GI50 (KM12 colon) [µM] | TGI (KM12 colon) [µM] | GI50 (HCT-116 colon) [µM] | GI50 (HOP-92 NSCLC) [µM]
1 | COc1ccc(/C=N\Nc2ccc([N+](=O)[O-])cn2)cc1OC | > 100 | > 100 | > 100 | > 100 | > 100 | > 100 | > 100 | > 100 |  |  |  |  |  |  |  |  |  |  |  | 
2 | N#C/C(=C1\SC(N=Nc2ccccc2)C(=O)N1c1ccccc1)c1nc2ccccc2[nH]1 (stereo not given) |  |  |  | > 100 |  | > 100 |  | > 100 | > 100 | > 100 | > 100 | > 100 |  |  |  |  |  |  |  | 
3 | CC(=O)[CH-]C(=O)c1ccccc1.CC(=O)[CH-]C(=O)c1ccccc1.CCOCC[O-].CCOCC[O-].[Ti+4] |  |  | 17.5 | 33.9 | 37.8 | > 100 | 15.5 | 37.8 | 45.4 |  | 90.5 | 35.6 | 18 | 58.7 | 13.8 | 28.7 | 27.1 | 77.3 | 17.3 | 
4 | CCOC(=O)C(C)(C)Oc1ccc(/C=C/C(=O)c2ccc(Cl)cc2)cc1 |  | > 100 |  | 41.2 |  | 30.7 |  | 44 | > 100 |  | > 100 | 31.5 |  | 53 |  |  |  |  |  | 
5 | CCOC(=O)CC1C(COC(=O)NC)OC(n2cnc3c(NC(=O)Nc4ccccc4)ncnc32)C1O[Si](C)(C)C(C)(C)C (stereo not given) |  |  | 2.83 | 15.1 | 7.78 | 23 | 15.8 | > 100 | 3.78 | 28.9 | > 100 | 5.38 | 2.16 | 5.48 | 1.39 | 6.93 | 3.21 | 10.7 | 2.33 | 6.52
6 | COc1nc(N)nc2c1ncn2C1OC(CO)C(O)C1O (stereo not given) |  |  | > 5000 | > 5000 | 3540 | > 5000 | > 5000 | > 5000 | > 5000 | > 5000 | > 5000 | > 5000 | 3580 | > 5000 | 1190 | 701 | > 5000 | > 5000 | > 5000 | 2640
7 | CC1=NN(C(=O)c2ccc([N+](=O)[O-])cc2)C(=O)C1N=Nc1ccccc1C(=O)O (stereo not given) |  |  |  | > 100 |  |  |  | > 100 | > 100 | 97.2 | > 100 | > 100 |  | > 100 |  |  |  | > 100 |  | 
8 | O=S1Nc2c(Cl)cc(Cl)c3c(Cl)cc(Cl)c(c23)N1 |  |  |  | > 100 |  | > 100 |  | 66 | > 100 | 51 | > 100 | > 100 |  | > 100 |  |  |  | > 100 |  | 
9 | O=C(OCc1ncc(-c2ccc(C(F)(F)F)cc2)c(NC2CCCCCC2)n1)c1c(F)c(F)c(F)c(F)c1F | 3.13 | 12.4 | 17.4 | 33.8 |  |  | 14.2 | 29.2 | 22 |  | 51.4 | 25.9 | 3.07 | 9.95 | 5.53 | 18.2 | 18.1 | 42.5 | 8.46 | 
10 | CCOc1cccc2ccc[n+](CC)c12 |  |  |  | > 100 |  | > 100 |  | > 100 |  | > 100 | > 100 | > 100 |  | > 100 |  |  |  | > 100 |  | 
11 | OCC(O)c1nc2ccc3[nH]ncc3c2c2c1CCCC2 (stereo not given) | 0.658 | 4.52 | 1.62 | > 50 | 1.1 | 3.85 | 0.96 | 2.73 | 3.14 |  | > 50 | > 50 |  |  | 1.24 | 1.67 | 1.62 | > 50 | 1.24 | 
12 | COC(=O)Cc1ccc(Oc2cnc3cc(F)c(F)cc3n2)cc1 |  |  | > 100 | > 100 | > 100 | > 100 | > 100 | > 100 | > 100 | > 100 | > 100 | > 100 | 23.2 | 81 | 42.5 | > 100 | > 100 | > 100 | 26 | > 100
